Each structure is given as a SMILES string.

For this assay, the target named is RAGE tail (ctRAGE) binding to mDial (Homo sapiens (Human), UniProt Q15109). The assay can be described thus: Primary screen: binding of GFP RAGE tail to mDial at one concentration (10 uM). As to conditions: 10 μM compound. How it is done: Primary screening was a two-step process in which compounds were first tested in a high throughput assay at one concentration (10 uM). Compounds that reduced binding of RAGE tail (ctRAGE) by at least 50% were then selected and subjected to 4-point dose response (10 uM, 1 uM, 0.1 uM and 0.01 uM) (FIGS. 1, 4, and 5).
Step 1. Add 50 μl anti-mDial (1:160 dilution in 0.1M NaHCO3 pH 9.6)/well. Incubate overnight at 4° C.
Step 2. Use the plate washer to aspirate anti-mDial and wash plates 4× with PBS 100 μl per well per wash.
Step 3. Add 180 μl 3% BSA in 1×PBS. Incubate for 1.5 hrs at room temperature
Step 4. Use the plate washer to aspirate the blocking solution and wash 5× with PBS 300 μl per well.
Step 5. Add 50 μl of mDial containing lysate (85 μg) and incubate at RT for 3 hours.
Step 6. Aspirate the lysate and wash the plate 5× (100 μl) on the plate washer.
Step 7. Add 25 μl PBS to the wells.
Step 8. Add 0.5 μL compound per well.
Step 9. Add 24.5 μL GFP RAGE tail (125 nM) into each well for 2 hrs at room temperature.
Step 10. Aspirate and wash 5× with PBS (100 μL) on the plate washer.
Step 11. Add 100 ul PBS in each well.
Step 12. Detection: Read on fluorescence plate reader excitation 435 nm and 485 nm emission
Compounds that blocked the binding of RAGE tail to mDial by 50% or more were subjected to 4 point dose response: 10 μM, 1 μM, 0.1 μM and 0.01 μM.

RAGE tail (ctRAGE) binding to mDial, sequence (Q15109 364-404): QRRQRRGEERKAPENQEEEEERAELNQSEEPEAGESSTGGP

For orientation: inhibition means the change of the read-out against control, counted positive when it falls. High values mean a response far below the control, low ones a response near the control. The compound `N#Cc1ccc(OCC(O)Cn2cnc3ccccc32)cc1` (centres unmarked) [CD-8] came in with an inhibition at 10 µM of 27%. The figure for `COc1ccccc1-c1cc(C(F)(F)F)nc(N2CCN(c3ccccc3OC)CC2)n1` [CD-42] is 42%. The same measure for `O=C(O)COc1ccc2c(C(F)(F)F)cc(=O)oc2c1` [CD-12]: 11%; for `OC(COc1cccc2ccccc12)Cn1cnc2ccccc21` (centres unmarked) [CD-16]: 69%. The figure for `OC(COCc1ccccc1)Cn1cnc2ccccc21` (centres unmarked) [CD-14] is 26%.

The values above are taken from patent US10729695B2, “Amino, amido and heterocyclic compounds as modulators of RAGE activity and uses thereof” (The Research Foundation for the State University of New York, priority 2013, dated 2020).
